Where two headings read alike, the source gives them in different places.
Legend:
NAALADase = NAALADase (UniProt P70627); test: In vitro assay of NAALADase activity ([3H]Glu liberated from [3H]NAAG, synaptosomal protein); type: biochemical; details: for NAALADase inhibiting activity (in words): comparison of Table III(a) compounds
Method: The following compounds were tested for in vitro inhibition of NAALADase activity.
Substrate and product were resolved by anion-exchange liquid chromatography. […] Quisqualate (100 μM) was included in parallel assay tubes to confirm the specificity of the measurements.

mice = test: In vivo toxicity of NAALADase inhibitors in mice; details: doses of 1 to 500 mg/kg, observed 5 consecutive days
Description: The mice were subsequently observed two times per day for 5 consecutive days.

[1] = tested on: LNCAP cells (a prostate cancer cell line); test: In vitro cancer assay: 3H-thymidine incorporation in LNCAP cells; type: cell-based, human; details: for 3H-Thymidine Incorporation (dpm/well): LNCAP cells, 7 days
Method: On the 7th day, the cells are pulsed with 3H-thymidine for 4 hours, harvested and measured for radioactivity. Values represent means +/−SEM of 6 separate cell wells for each treatment. All experiments are performed at least twice.
Cells are grown in RPMI-1640 media supplemented with 10% heat-inactivated fetal calf serum, 2 mM-glutamine, 100 units/ml penicillin, and 100 μg/ml streptomycin (Paragon) in a humidified incubator at 37° C. in a 5% CO2/95% O2 atmosphere.
The cells are suspended at 1×10^3 cells/ml in RPMI-1640 media and seeded into 24-well plates at 500 μl per well. […] On days 3, 5 and 7, media and drug are refreshed. On the 8th day following seeding, each well is pulsed with 1 μCi ^3H-thymidine (New England Nuclear) for 4 hours. Media is then removed and the wells washed 2 times with phosphate buffered saline (pH=7.4). […] 5 ml UltimaGold (Packard) scintillation cocktail is added and radioactivity is quantitated using a Beckman LS6001 scintillation counter.

[2] = tested on: LNCAP human prostate tumors; test: In vivo LNCaP tumor xenograft assay; design: species or system mice; details: daily intratumoral injection (0.25 μg/day), six weeks, p=0.04
Method: Referring now to FIGS. 3 and 4, LNCaP human prostate cancer cells were injected subcutaneously into the right flank of male nude mice. […] The 2-(phosphonomethyl)pentanedioic acid polymer was changed two times per week. Tumor volumes were monitored for 42 days after the beginning of treatment.
LNCaP is a human prostate cancer cell line that was established in 1973 from a […] of a patient who had been treated with 5-FU, doxorubicin, methotrexate, and CTX in the 3 months before the cell line was initiated. This line is androgen receptor positive and has been used in screening anticancer drugs that are targeted as hormone antagonists. […]
After the animals were released from quarantine, the mice were injected subcutaneously in the right flank with 1×10^7 LNCaP cells in Matrigel™ (0.1-ml injection volume) Tumor dimensions and body weight were measured twice weekly. Vernier calipers were used to measure tumors in three planes, and tumor volume (V) was calculated as follows: V=π(x×y×z)/6, where x, y, and z were the tumor measurements minus skin thickness. […]
The tumor were measured twice weekly for at least 8 weeks after the first treatment. The mean tumor volume for each group was calculated for each time point. Comparisons between groups at specific times were made using an unpaired, two-tailed t-test, and the results were analyzed using analysis of variance (ANOVA). […]

[3] = tested on: R3327 rat prostate tumors (Dunning R3327-G prostate cancer cells); test: In vivo rat Dunning R3327 model
Method: Referring now to FIGS. 5 and 6, Dunning R3327-G prostate cancer cells were injected subcutaneously into both flanks of syngeneic male rats. […] In the second study, the anti-tumor growth activity of 2-[[phenylmethyl)hydroxyphosphinyl]methyl]pentanedioic acid was tested following daily intra-tumoral injections of the drug (0.1,1,10,100 μg) after the tumor reached an initial volume of 80-290 mm^3. Tumor volumes were subsequently monitored for 42 days after the beginning of drug treatment.
R3327-G is a cell line derived from an androgen-sensitive papillary adenocarcinoma derived from a spontaneously forming tumor in the rat prostate. […]
After the animals were released from quarantine, the rats were injected subcutaneously in both flanks with 1×10^7 R3327-G cells (0.1-ml injection volume). Tumor dimensions and body weight were measured twice weekly. Vernier calipers were used to measure tumors in three planes, and tumor volume (V) was calculated as follows: V=π(x×y×z)/6, where x, y, and z were the tumor measurements minus skin thickness. […]
The tumors were measured twice weekly. The mean tumor volume for each group was calculated for each time point. Comparisons between groups at specific times were made using an unpaired, two-tailed t-test, and the results were analyzed using analyzed of variance (ANOVA). […]

[4] = Table III(c), read-out: Ki Value

CCCCP(=O)(O)CC(CCC(=O)O)C(=O)O (stereo not shown)
Ki (NAALADase; Table III(b), read-out: Ki): 0.148 µM

Cc1cccc(P(=O)(O)CC(CCC(=O)O)C(=O)O)c1 (stereo not shown)
Ki (NAALADase; Table III(b), read-out: Ki): 0.19 µM

O=C(O)CCC(CP(=O)(O)Cc1ccccc1F)C(=O)O (stereo not shown)
Ki (NAALADase; [4]): 0.175 µM

O=C(O)CCC(CP(=O)(O)Cc1c(F)c(F)c(F)c(F)c1F)C(=O)O (stereo not shown)
Ki (NAALADase; [4]): 0.038 µM

O=C(O)CCC(CP(=O)(O)O)C(=O)O (stereo not shown) [2-(phosphonomethyl)pentanedioic acid]
Toxicological effect in mice (in words) (mice): non-toxic | Ki (NAALADase; Table III(a)): 0.000275 ± 8e-05 µM | NAALADase inhibiting activity (in words) (NAALADase): high level of NAALADase inhibiting activity | Ki (NAALADase; text restating Table III(a)): 0.00027 µM | Potency relative to previously described inhibitors (NAALADase; times more potent): > 1000 times | LNCAP cell proliferation (incorporation of [3H]thymidine), FIG. 2 ([1]; 7-day treatment, 100 pM to 10 nM): sharp dose-dependent decrease | 3H-Thymidine Incorporation (dpm/well) ([1]; 10 pM): 3078 ± 1006 dpm/well | 3H-Thymidine Incorporation (dpm/well) ([1]; 100 pM): 2062 ± 595 dpm/well | 3H-Thymidine Incorporation (dpm/well) ([1]; 1 nM): 1001 ± 52 dpm/well | 3H-Thymidine Incorporation (dpm/well) ([1]; 10 nM): 664 ± 366 dpm/well | Mean tumor volume versus control group, FIG. 3 [2]: statistically significant difference | Tumor growth, FIG. 5 ([3]; daily subcutaneous injections 1, 3, 10 and 30 mg/kg, 84 days): tumor growth slowed

O=C(O)CC(CP(=O)(O)O)C(=O)O (stereo not shown) [2-(phosphonomethyl)succinic acid, reference compound]
NAALADase inhibiting activity (in words) (NAALADase): much lower NAALADase inhibiting activity

O=C(O)CCC(CP(=O)(O)Cc1ccccc1)C(=O)O (stereo not shown) [2-[(benzylhydroxyphosphinyl)methyl]pentanedioic acid]
Mean tumor volume relative to start of treatment (V/Vo) versus control group, FIG. 6 ([3]; daily intra-tumoral injections of 1 μg, 2.5 weeks, p=0.02): statistically significant difference

O=C(O)CCC(CP(=O)(O)CCC(=O)O)C(=O)O (stereo not shown) [2-[[2-carboxyethyl)hydroxyphosphinyl]-methyl]pentanedioic acid)]
NAALADase inhibiting activity (in words) (NAALADase): lower NAALADase inhibiting activity

— patent publication US6372726B1, “Methods of cancer treatment using NAALADase inhibitors” (Guilford Pharmaceuticals Inc., priority 1996, dated 2002)
